Experimental data taken from patent US20110003854A1, “BREAST CANCER TREATMENT AND TREATMENT PREDICTION” (priority 2007, published 2011).
Like-named read-outs stand apart in the source and are kept apart here.

Legend:
ERα+/PR− tumors = settings: postmenopausal women, follow-up 6 years, compared to patients treated with tamoxifen; cited from earlier work
breast cancer [1] = settings: cited from earlier work
breast cancer [2] = settings: five years adjuvant tamoxifen after primary surgery; ER positive tumors, irrespective of lymph node status; cited from earlier work
[3] = system: stage II primary breast carcinoma; assay: Controlled, randomized adjuvant tamoxifen trial; Kaplan-Meier survival analysis by CRABP2 level on breast cancer TMA; assay type: in vivo, human
Text: Median age at diagnosis was 45 (25-57) years. Median follow-up was 13.9 years and less than 2% of the patients had received adjuvant chemotherapy. The study design is described in detail elsewhere (Rydén et al, Eur J Cancer, 2005, 41(2): 256-64). Ethical permission was obtained from the Local Ethics Committees at Lund and Linköping Universities.
All cases had been histopathologically re-evaluated on hematoxylin and eosin stained slides. TMA:s were then constructed by sampling 2×0.6 mm cores per case from areas representative of invasive cancer. The TMA:s were prepared and automated immunohistochemistry was performed as described in section 3 above, using the CRABP2 antibody prepared as described in section 2 above.
As with “staining intensity” in Examples, Section 3 above, ni was subjectively evaluated in accordance to standards used in clinical histo-pathological diagnostics and outcome was classified as: absent (O)=no immunoreactivity, weak (1)=faint immunoreactivity, moderate (2)=medium immunoreactivity or strong (3)=distinct and strong immunoreactivity. Further, as with “the fraction of stained cells” in Examples, Section 3 above, nf was classified as <2%, 2-25%, 26-75% or >75%. Two categories were defined: “CRABP2 low” corresponding to nf<=25% and ni=0-1; and “CRABP2 high” corresponding to nf>25% and/or ni=2-3 (FIG. 1). This classification of samples was used for recurrence free survival (RFS) or breast cancer specific survival ([…]) analysis according to the Kaplan-Meier estimator, and the log-rank test was used to compare survival in different strata. All statistical tests were two-sided, and p-values of <[…] were considered significant. All calculations were made with the statistical package SPSS 12.0 (SPSS Inc. Illinois, USA).

[4] = system: ERα positive breast cancer; settings: cited from earlier work
ERα+/PR+ tumors = settings: cited from earlier work

Question: For `CC(C)(C#N)c1cc(Cn2cncn2)cc(C(C)(C)C#N)c1` [anastrozole], which recurrence rate (ERα+/PR− tumors) is on record?
Answer: halved

Question: For `CC/C(=C(\c1ccccc1)c1ccc(OCCN(C)C)cc1)c1ccccc1` [tamoxifen], which “recurrence-free and overall survival” value (breast cancer [1]; high PR level, >75% nuclear fraction, irrespectively of ERα status) is on record?
Answer: significantly correlated with an increased recurrence-free and overall survival

Question: What about the “recurrence-free and overall survival” value (breast cancer [1]; lower PR level, <75%) of the same compound?
Answer: no positive effect

Question: And the breast cancer mortality (breast cancer [2])?
Answer: reduces the breast cancer mortality

Question: What about the “recurrence free survival (RFS)” value ([3]; CRABP2 high tumors, irrespective of ER status, adjuvant tamoxifen 2 years vs control (FIG. 3B)) of the same compound?
Answer: improved survival

Question: What about the “recurrence free survival (RFS)” value ([3]; CRABP2 low tumors, irrespective of ER status, tamoxifen vs control (FIG. 3A)) of the same compound?
Answer: no impact on survival

Question: And the “recurrence free survival (RFS)” value ([3]; ERα+ and CRABP2 high, tamoxifen vs control (FIG. 4B))?
Answer: a trend towards a positive response

Question: What about the “recurrence free survival (RFS)” value ([3]; ERα+ and CRABP2 low, tamoxifen vs control (FIG. 4A)) of the same compound?
Answer: a trend towards a positive response

Question: And the “recurrence free survival (RFS)” value ([3]; ERα− and CRABP2 high, tamoxifen vs control (FIG. 5B))?
Answer: positively affected

Question: What about the “breast cancer specific survival (BCSS)” value ([3]; ERα− and CRABP2 high, tamoxifen vs control (FIG. 6B)) of the same compound?
Answer: better trend

Question: And the “recurrence free survival (RFS)” value ([3]; ERα− and CRABP2 low, tamoxifen vs control (FIG. 5A))?
Answer: negatively affected

Question: And the “breast cancer specific survival (BCSS)” value ([3]; ERα− and CRABP2 low, tamoxifen vs control (FIG. 6A))?
Answer: worse trend

Question: What about the “recurrence free survival (RFS)” value ([3]; ERα− and PR−, CRABP2 high, tamoxifen vs control (FIG. 11b)) of the same compound?
Answer: better trend

Question: What about the “breast cancer specific survival (BCSS)” value ([3]; ERα− and PR−, CRABP2 high, tamoxifen vs control (FIG. 12b)) of the same compound?
Answer: better trend

Question: And the “recurrence free survival (RFS)” value ([3]; ERα− and PR−, CRABP2 low, tamoxifen vs control (FIG. 11a))?
Answer: worse trend

Question: What about the “breast cancer specific survival (BCSS)” value ([3]; ERα− and PR−, CRABP2 low, tamoxifen vs control (FIG. 12a)) of the same compound?
Answer: worse trend

Question: And the “recurrence free survival (RFS)” value ([3]; ERα− and/or PR−, CRABP2 high, tamoxifen vs control (FIG. 9b))?
Answer: better trend

Question: What about the “breast cancer specific survival (BCSS)” value ([3]; ERα− and/or PR−, CRABP2 high, tamoxifen vs control (FIG. 10b)) of the same compound?
Answer: better trend

Question: What about the “recurrence free survival (RFS)” value ([3]; ERα− and/or PR−, CRABP2 low, tamoxifen vs control (FIG. 9a)) of the same compound?
Answer: worse trend

Question: And the “breast cancer specific survival (BCSS)” value ([3]; ERα− and/or PR−, CRABP2 low, tamoxifen vs control (FIG. 10a))?
Answer: worse trend

Question: And the “recurrence free survival (RFS)” value ([3]; PR− and CRABP2 high, tamoxifen vs control (FIG. 7B))?
Answer: better survival probability trend

Question: What about the “breast cancer specific survival (BCSS)” value ([3]; PR− and CRABP2 high, tamoxifen vs control (FIG. 8B)) of the same compound?
Answer: better trend

Question: What about the “recurrence free survival (RFS)” value ([3]; PR− and CRABP2 low, tamoxifen vs control (FIG. 7A)) of the same compound?
Answer: negatively affected

Question: What about the “breast cancer specific survival (BCSS)” value ([3]; PR− and CRABP2 low, tamoxifen vs control (FIG. 8A)) of the same compound?
Answer: worse trend

Question: And the “ERα positive patients that do not respond to treatment” value [4]?
Answer: 30-40%

Question: And the disease free survival (ERα+/PR+ tumors; older patients (≧60 years), ERα+/PR+ tumors, tamoxifen vs no adjuvant treatment)?
Answer: significantly longer disease free survival

Question: And the disease free survival (ERα+/PR+ tumors; younger patients (<60 years))?
Answer: no significant effect
